Assay results taken from US20090176714A1, “METHOD OF REDUCING THE EFFECTS OF ABeta AND COMPOSITIONS THEREFORE” (priority 2004, published 2009).
No end group written: not given here.

Assays:
[1] = system: hippocampal slice cultures; assay: Aβ-induced cell death (EthD-1/calcein AM, % Death) in organotypic hippocampal slice cultures; type: cell-based, mouse
Experimental: Pups from C57B6/SJL mice were anaesthetized and decapitated at postnatal day 15. The brain was removed and placed in ice-cold dissecting medium (50% Minimum Essential Medium (Invitrogen, Carlsbad, Calif.), 50% Hank's Balanced Salt Solution (Invitrogen), 25 mM HEPES, and 36 mM glucose). Both hippocampi were dissected under a dissecting microscope and cut at 400 μm on a McIlwain tissue chopper. Slices were separated and placed on filter inserts with a 30 mm diameter and a 0.4 μm filter pore size (Millipore, Billerica, Mass.) held in 6-well culture plates. For the first 3 days, slices were kept in Neurobasal media with B-27 supplement, 1 mM glutamine, and 1% penicillin/streptomycin (Invitrogen). Subsequently, the media was changed every 3 days using media without antibiotics. Organotypic cultures were maintained in a humidified incubator at 37° C. in 5% O2 and 5% CO2 for 14 to 21 days.
(§1) Cell death and viability was determined on live slices using the fluorescent probes from Molecular Probes' Live/Dead Kit. After a 40 minute incubation in calcein AM (1:400) and ethidium homodimer (1:1000) in phosphate buffered saline, slices were visualized at 200× magnification with an inverted Nikon Diaphot 200 microscope using the Bio-Rad MRC-1024 Laser Scanning Confocal system (Hercules, Calif.). Random images of the neuronal fields were captured at the emission spectrum of each probe, and Scion Image software (Frederick, Md.) was used to quantify the number of live and dead cells. At least three areas including a neuronal field were imaged and used to determine the percent death for each slice. The percent death was calculated as the number of EthD-1 positive cells divided by the total number of EthD-1 and calcein AM positive cells.
β-amyloid1-42 and reverse Aβ (Aβ42-1) were obtained from BACHEM (Torrance, Calif.). These polypeptides were dissolved in 0.1% NH3OH at 222 μM. For treatments, Aβ was aggregated at 50 μM in Neurobasal media with B-27 supplement and 1 mM glutamine at 37° C. for 24 hours. Then, the slice culture media was removed, and the slices were treated with 1 mL of 25 μM or 50 μM Aβ, reverse Aβ, or vehicle for 24 hours. Human TTR (Calbiochem) or IGF-2 (Peprotech, Rocky Hill, N.J.) was added to slices together with the Aβ treatment at final concentrations of 3 μM (TTR) or 500 nM (IGF-2). sAPPα was prepared as described previously (Mattson et al., Neuron, 10:243-254 (1993)).
Unless otherwise stated, all sAPPα treatments were performed at 1 nM 48 hours prior to the addition of Aβ. Antibodies against TTR (C-20) or IGF-2 (F-20; 4 μg/mL; Santa Cruz) or sAPPα (6E10; 10 μg/mL; Chemicon) were added to slices together with the sAPPα treatment. Goat IgG (4 μg/mL; Santa Cruz) or mouse IgG1 (10 μg/mL; Chemicon) was added as a control. The 10 amino acid fragment of the carboxyl-terminal region of sAPPα (592-601 of APP695; SEVKMDAEFR; SEQ ID NO:1; Sigma) was added according to the same protocol for sAPPα.
SiRNA's were created based on the mouse mRNA sequences using the Ambion Silencer siRNA Construction Kit (Austin, Tex.). Several siRNA's were created by in vitro transcription for each silenced gene. Transfection was performed for 4 hours at 37° C. prior to vehicle or sAPPα treatment using 25 nM siRNA combined with the polyamines in the Ambion siPORT Amine Transfection Agent. Transfections were performed in Neurobasal media with 1 mM glutamine (Invitrogen). The successful mRNA target sequences are as follows, TTR: 5′-[…]-3′ (SEQ ID NO:16) and 5′-[…]-3′ (SEQ ID NO:17); IGF-2: 5′-AA-GGGGATAGAGATGTGAGAG-3′ (SEQ ID NO:18) and 5′-AAATTATGTGGT-AATTCTGCA-3′ (SEQ ID NO:19); IGF-1R: 5′-[…]-3′ (SEQ ID NO:20) and 5′-[…]-3′ (SEQ ID NO:21).
β-amyloid1-42 and reverse Aβ (Aβ42-1) were obtained from BACHEM (Torrance, Calif.). These peptides were dissolved in 0.1% NH3OH at 222 μM. For treatments, Aβ was aggregated at 50 μM in Neurobasal media with B-27 supplement and 1 mM glutamine at 37° C. for 24 hours. […]

[2] = system: human cortical slices; assay: Aβ-induced cell death (EthD-1/calcein AM) in human organotypic cortical cultures; type: cell-based; conditions: for Protection against the Aβ-induced EthD-1 staining: FIG. 6C
Text: Four patients with intractable epilepsy who had elected to undergo a temporal lobe resection were recruited for this study. […] However, the overlying temporal cortex is normal. The age of the subjects ranged from 20 to 49. Brain tissue was obtained with informed consent from all patients.
Brain tissue was removed in large, intact pieces by electrocautery. Tissue obtained from the temporal cortex was approximately 3 cm×2 cm×1.5-2 cm. Immediately following removal, the tissue was placed in ice-cold Neuregen-I media (Brainbits, Springfield, Ill.), a CO2 independent transport and holding medium, and transported to a tissue culture laboratory. Meninges were removed before cutting the tissue with a scalpel to produce blocks about 0.5-1 cm^3 such that each gyrus was kept as intact as possible and the cortical layers were preserved. As described previously, incisions were made perpendicular to the longitudinal axis of the gyrus and along the white matter (Verwer et al., Exp. Gerontol., 38:167-172 (2003)). A vibratome was used to cut 400 μm thick slices at a plane perpendicular to the longitudinal axis of the gyrus. Thus, all cortical layers and a small amount of white matter were included in a slice. Alternately, small tissue pieces, which were usually obtained from the hippocampus, were cut at 400 μm using a McIlwain tissue chopper. No more than 2 slices were placed on a filter insert with a 30 mm diameter and a 0.4 μm filter pore size (Millipore, Billerica, Mass.) held in 6-well culture plates. For the first 12 hours, slices were kept in 1-1.2 mL Neurobasal media with B-27 supplement, 0.5 mM glutamine, and 1% penicillin/streptomycin (Invitrogen). Subsequently, the media was changed every 2 days using 1 mL of media without antibiotics. Organotypic cultures were maintained in a humidified incubator at 37° C. in 5% O2, 5% CO2, and 90% N for 4 to 28 days.
as §1, with “images” for “images of the neuronal fields”, “areas” for “areas including a neuronal field”
β-amyloid1-42 and reverse Aβ (Aβ42-1) were obtained from BACHEM (Torrance, Calif.). These peptides were dissolved in 0.1% NH3OH at 222 μM. For treatments, Aβ or reverse Aβ was aggregated at 50 μM in Neurobasal media with B-27 supplement and 0.5 mM glutamine at 37° C. for 24 hours. Then, the slice culture media was removed, and the slices were treated with 1 mL of 25 μM or 50 μM Aβ, reverse Aβ, or vehicle for 24 hour. Human TTR (Calbiochem) was added to slices together with the Aβ treatment at final concentrations of 0.03, 0.3, and 3 μM TTR. sAPPα was obtained from Sigma (St. Louis, Mo.). Unless otherwise stated, all sAPPα treatments were performed at 1 nM 48 hours prior to the addition of Aβ. The 10 amino acid fragment of the carboxyl-terminal region of sAPPα (592-601 of APP695; SEVKMDAEFR was added according to the same protocol for sAPPα. Because a variable amount of tissue was obtained from each patient, not all treatments were performed on all patients.

[3] = 1 nM 48 h prior to 25 μM Aβ (24 h), FIG. 12A
[4] = 1 nM 48 hours prior to 25 μM Aβ (24 hours), FIG. 7
[5] = 48 h prior to 25 μM Aβ (24 h), FIG. 12B, 1 nM, final concentration of 1 mM

Substance | Protection against Aβ-induced death (% Death) [1, 4] | Protection against Aβ-induced death (% Death) [1, 5] | other results
insulin-like growth factor 2 [IGF-2] | – | – | Protection against Aβ-induced death (% Death) ([1]; 500 nM added together with Aβ, FIG. 4A): partially protected
acetyl-DAEF (Ac-DAEF) [DAEF with the NH2-terminal end acetylated] | – | – | Protection against Aβ-induced death (% Death) [1, 3]: did not protect to the same degree as the unmodified tetrapeptide; Protection against Aβ-induced death (% Death) ([1]; 1 nM 48 h prior to 25 μM Aβ (24 h), FIG. 12A, listed as Acetylated DAEF): significant protection
VKMDAEFR [fragment with the serine and glutamic acid eliminated] | significantly protected | – | –
(dD)AEF | – | do not significantly protect | –
EVKMDAEFR [fragment with the serine eliminated] | significantly protected | – | –
DAE(dF) | – | do not significantly protect | –
transthyretin [TTR] | – | – | Protection against Aβ-induced death (% Death) ([1]; 3 μM added together with Aβ, FIG. 4A): completely protected; Protection against the Aβ-induced EthD-1 staining ([2]; co-treatment with 0.03 μM): not; Protection against the Aβ-induced EthD-1 staining ([2]; co-treatment with 0.3 μM): protected; Protection against the Aβ-induced EthD-1 staining ([2]; co-treatment with 3 μM): protected; Concentrations that protect against Aβ toxicity ([2]; human cortical slices, co-treatment with Aβ): ≥ 0.3 µM
SEVKMDAE [fragment with both arginine and phenylalanine eliminated] | reversed the protection | – | –
D(dA)EF | – | do not significantly protect | –
R(9)-DAEF (RRRRRRRRRDAEF) [9 arginines added to the NH2-terminal end of the tetrapeptide] | – | – | Protection against Aβ-induced death (% Death) [1, 3]: significantly protected
EADF-amide (EADF-NH2) [EADF (SEQ ID NO:5)-amide, aspartic acid and glutamic acid switched and an amide group attached to the COOH-terminus] | – | significantly protects | –
SEVKMDAEF [10 amino acid fragment with the carboxyl arginine eliminated] | protection was maintained | – | –
acetyl-EADF (Ac-EADF) | – | does not | –
